The values below come from PMC11845477, “Exploring the principles behind antibiotics with limited resistance” (Nature Communications, 2025).

The assay has as its system P. aeruginosa ATCC BAA-3107 (SEN) and P. aeruginosa LESB58 (MDR). Kind of assay: Adaptive laboratory evolution (ALE), relative MIC of evolved lines. Type of assay: cell-based, Pseudomonas aeruginosa. As to conditions: for Relative MIC (log10): PA-SEN (Pseudomonas aeruginosa ATCC BAA 3107). The source says: Using the same set of bacterial strains, we initiated adaptive laboratory evolution with the aim to maximize the level of antibiotic resistance in the populations achieved during a longer, but fixed time period.
An established protocol for adaptive laboratory evolution[46],[73] was followed to propagate populations with the highest resistance levels. Starting with an antibiotic concentration that caused approximately 50% growth inhibition, ten parallel populations for each antibiotic-ancestor strain combination were grown for 72 hours at 37 °C with continuous shaking (300 RPM). MHB broth medium was used unless stated otherwise. After each incubation, 20 µl of each culture was transferred to four new wells containing fresh medium with increasing antibiotic concentrations (0.5×, 1×, 1.5×, and 2.5× the previous concentration) in a chessboard layout to monitor potential cross-contamination. Growth was monitored by measuring OD600 using a Biotek Synergy 2 microplate reader, and only populations grown in the highest drug concentration with an OD600 > 0.2 were transferred further.
A robotic liquid handling system was used to automatically prepare a 11 to 16-step serial dilution in 384-well microtiter plates (Greiner). A final concentration of 5 × 10^5 bacterial cells per mL were inoculated into each well containing 60 µL MHB medium. Bacterial cultures were incubated at 37 °C with continuous shaking (Infors shaker, 900 rpm with 3 mm throw) for 18 hours (2 replicates from each). Cell growth was monitored by measuring the optical density (OD600 values, using Biotek Synergy microplate reader). MIC was defined as the antibiotic concentration of complete growth inhibition (i.e., OD600 < 0.05). Relative MIC was calculated as follows:1 relativeMIC=MICevolved/MICancestor […]
Supplementary Figure 4. Resistance levels following adaptive laboratory evolution across bacterial strains. The level of resistance was measured as the fold change in relative MIC between evolved and ancestral strains after ~60 days of adaptive laboratory evolution. Data are grouped by bacterial strain (A. baumannii (AB), E. coli (EC), K. pneumoniae (KP), and P. aeruginosa (PA)) and categorized as either multidrug-resistant (MDR) or sensitive (SEN). Each data point represents a laboratory evolved line, and boxplots show the median, first and third quartiles, with whiskers indicating the 5th and 95th percentiles.
Statistical analysis was performed using two-sided Dunn’s post-hoc test with Benjamini-Hochberg correction for multiple comparisons (****/ ***/ **/ * indicates p < 0.0001/ 0.001/ 0.01/ 0.05). For detailed information on antibiotic and bacterial species, see Supplementary Table 1. For mode of action groups, refer to Table 1. Source data are provided as a Source Data file.

The mark [1] stands for this setting: PA-SEN, Pseudomonas aeruginosa ATCC BAA 3107, evolved line 1.
Where [2] appears, read: PA-SEN, Pseudomonas aeruginosa ATCC BAA 3107, evolved line 2.
The mark [3] stands for this setting: PA-SEN, Pseudomonas aeruginosa ATCC BAA 3107, evolved line 4.
The mark [4] stands for this setting: PA-SEN, Pseudomonas aeruginosa ATCC BAA 3107, evolved line 6.
Setting [5] is: PA-SEN, Pseudomonas aeruginosa ATCC BAA 3107, evolved line 8.
[6] abbreviates: PA-SEN, Pseudomonas aeruginosa ATCC BAA 3107, evolved line 9.
[7] abbreviates: PA-SEN, Pseudomonas aeruginosa ATCC BAA 3107, evolved line 10.

polymyxin-B: the MIC of evolved line is, setting by setting: (PA-MDR (P. aeruginosa LESB 58), evolved line 4 of the given antibiotic) 4 µg/mL; (PA-MDR (P. aeruginosa LESB 58), evolved line 5 of the given antibiotic) 4 µg/mL; (PA-MDR (P. aeruginosa LESB 58), evolved line 7 of the given antibiotic) 32 µg/mL; (PA-MDR (P. aeruginosa LESB 58), evolved line 8 of the given antibiotic) 8 µg/mL; (PA-MDR (P. aeruginosa LESB 58), evolved line 10 of the given antibiotic) 16 µg/mL; (PA-MDR LESB 58, evolved line 1) 64 µg/mL. Also, the MIC of evolved line came to 256 µg/mL (PA-MDR LESB 58, evolved line 2); 16 µg/mL (PA-MDR LESB 58, evolved line 3); 32 µg/mL (PA-SEN (P. aeruginosa ATCC BAA 3107), evolved line 1 of the given antibiotic); 32 µg/mL (PA-SEN (P. aeruginosa ATCC BAA 3107), evolved line 4 of the given antibiotic); 32 µg/mL (PA-SEN (P. aeruginosa ATCC BAA 3107), evolved line 5 of the given antibiotic); 4 µg/mL (PA-SEN (P. aeruginosa ATCC BAA 3107), evolved line 6 of the given antibiotic). Besides, the MIC of evolved line reads like this: (PA-SEN (P. aeruginosa ATCC BAA 3107), evolved line 7 of the given antibiotic) 16 µg/mL; (PA-SEN (P. aeruginosa ATCC BAA 3107), evolved line 8 of the given antibiotic) 16 µg/mL; (PA-SEN (P. aeruginosa ATCC BAA 3107), evolved line 9 of the given antibiotic) 4 µg/mL; (PA-SEN (P. aeruginosa ATCC BAA 3107), evolved line 10 of the given antibiotic) 4 µg/mL.
On to `CNC(C)C1CCC(N)C(OC2C(N)CC(N)C(OC3OCC(C)(O)C(NC)C3O)C2O)O1` (stereo not drawn) [Gentamicin], for which the “Relative MIC (log10)” value (evolved line 1 adapted to the named antibiotic) was 2.107; the “Relative MIC (log10)” value (evolved line 2 adapted to the named antibiotic) was found to be 1.806; the “Relative MIC (log10)” value (evolved line 6 adapted to the named antibiotic) came to 1.806; the “Relative MIC (log10)” value (evolved line 9 adapted to the named antibiotic) is given as 2.107; the “Relative MIC (log10)” value (evolved line 10 adapted to the named antibiotic) was 2.408. For the same compound, the MIC of evolved line by setting is: under setting [1], 128 µg/mL; under setting [2], 64 µg/mL; under setting [3], 128 µg/mL; under setting [4], 64 µg/mL; under setting [5], 256 µg/mL; under setting [6], 128 µg/mL. Besides, the MIC of evolved line under setting [7] turned out to be 256 µg/mL. Besides, the “Relative MIC” value reads like this: under setting [1], 128; (PA-SEN, Pseudomonas aeruginosa ATCC BAA 3107, evolved line 1 versus ancestor) 128; under setting [2], 64; (PA-SEN, Pseudomonas aeruginosa ATCC BAA 3107, evolved line 2 versus ancestor) 64; under setting [3], 128; (PA-SEN, Pseudomonas aeruginosa ATCC BAA 3107, evolved line 4 versus ancestor) 128. Moreover, the “Relative MIC” value runs as follows: under setting [4], 64; (PA-SEN, Pseudomonas aeruginosa ATCC BAA 3107, evolved line 6 versus ancestor) 64; under setting [5], 256; (PA-SEN, Pseudomonas aeruginosa ATCC BAA 3107, evolved line 8 versus ancestor) 256; under setting [6], 128; (PA-SEN, Pseudomonas aeruginosa ATCC BAA 3107, evolved line 9 versus ancestor) 128. Moreover, the “Relative MIC” value runs as follows: under setting [7], 256; (PA-SEN, Pseudomonas aeruginosa ATCC BAA 3107, evolved line 10 versus ancestor) 256.
